Experimental data published in ChEMBL document CHEMBL4152294, “Design, synthesis, structure-activity relationships study and X-ray crystallography of 3-substituted-indolin-2-one-5-carboxamide derivatives as PAK4 inhibitors” (Eur J Med Chem, 2018).

Key:
HCT-116 = assay: Antiproliferative activity against human HCT116 cells after 72 hrs by CCK8 assay; assay type: functional, cell-based; settings: HCT-116, 72 h
A549 = assay: Antiproliferative activity against human A549 cells after 72 hrs by CCK8 assay; assay type: functional, cell-based; settings: A549, 72 h

Structure (SMILES)	IC50 (HCT-116) [nM]	IC50 (A549) [nM]
Cc1nc(/C(=C2\C(=O)Nc3ccc(C(=O)N[C@H](CO)c4ccccc4)cc32)c2ccccc2)[nH]c1C	2580	17700
CCc1ncc(/C=C2\C(=O)Nc3ccc(C(=O)N[C@H](CO)c4ccccc4)cc32)[nH]1	2860	29800
Cc1ncc(/C=C2\C(=O)Nc3ccc(C(=O)N[C@H](CO)c4ccccc4)cc32)[nH]1	4090	56100
O=C1Nc2ccc(C(=O)N[C@H](CO)c3ccccc3)cc2/C1=C(/c1ncc[nH]1)c1ccccc1Cl	635	1280

Molecules with a lower IC50 (HCT-116), results first:

IC50 (HCT-116) [nM]	IC50 (A549) [nM]	Structure (SMILES)
88	666	O=C1Nc2ccc(C(=O)N[C@H](CO)c3ccccc3)cc2/C1=C(/c1ncc[nH]1)c1ccccc1F
77	511	Cc1c[nH]c(/C(=C2\C(=O)Nc3ccc(C(=O)N[C@H](CO)c4ccccc4)cc32)c2ccccc2)n1
39	463	Cc1nc(Nc2n[nH]c3c2CN(C(=O)N[C@H](CN(C)C)c2ccccc2)C3(C)C)c2sccc2n1 [PF-03758309]
